Assay results taken from US20240352145A1, “EFFICACY OF ANTI-TROP-2-SN-38 ANTIBODY DRUG CONJUGATES FOR THERAPY OF TUMORS RELAPSED/REFRACTORY TO CHECKPOINT INHIBITORS” (Immunomedics, Inc., priority 2016, published 2024).

Key:
PC-3 = test: In vitro cytotoxicity, PC-3
Text: (§2) Cell lines, antibodies, and chemotherapeutics—All human cancer cell lines used in this study were purchased from the American Type Culture Collection.

[1] = tested on: BXPC3 model of human pancreatic cancer; conditions: mouse, in vivo, sc
Capan-1 = test: Cytotoxicity (MTS), Example 6, Capan-1; type: cell-based, human; conditions: Capan-1, 96 h
Method: (§1) One day prior to adding the ADCs, cells were harvested from tissue culture and plated into 96-well plates. […] Plates were incubated at 37° C. for 96 h. […] Growth inhibition was measured as a percent of growth relative to untreated cells using Microsoft Excel and Prism software (non-linear regression to generate sigmoidal dose response curves which yield IC50-values.

SK-MES-1 = test: In vitro cytotoxicity, SK-MES-1
Text: as §2

COLO 205 tumors = test: COLO 205 xenograft therapy; type: in vivo
Method: (§3) NCr female athymic nude (nu/nu) mice, 4 to 8 weeks old, and male Swiss-Webster mice, 10 weeks old, were purchased from Taconic Farms. […] Tumor volume (TV) was determined by measurements in 2 dimensions using calipers, with volumes defined as: L×w^2/2, where L is the longest dimension of the tumor and w is the shortest. […] This dosing frequency reflected a consideration of the conjugate's serum half-life in vitro, to allow a more continuous exposure to the ADC.
(§4) Statistics—Growth curves are shown as percent change in initial TV over time. Statistical analysis of tumor growth was based on area under the curve (AUC). Profiles of individual tumor growth were obtained through linear-curve modeling. An f-test was employed to determine equality of variance between groups before statistical analysis of growth curves. A 2-tailed t-test was used to assess statistical significance between the various treatment groups and controls, except for the saline control, where a 1-tailed t-test was used (significance at P≤0.05). Statistical comparisons of AUC were performed only up to the time that the first animal within a group was euthanized due to progression.

[2] = Tolerability in Swiss-Webster mice; type: in vivo, mouse
[3] = Tolerability in Cynomolgus monkeys; type: in vivo, Macaca fascicularis
Method: Tolerability studies were performed in Cynomolgus monkeys (Macaca fascicularis; 2.5-4 kg male and female) by SNBL USA, Ltd. Animals were implanted subcutaneously with different human cancer cell lines.
Dosages, times, and number of monkeys bled for evaluation of possible hematologic toxicities and serum chemistries are described in the Results.

[4] = tested on: SK-MES-1 human squamous cell lung tumors; test: SK-MES-1 xenograft therapy; type: in vivo; conditions: for tumor volume (TV): 0.4 mg/kg, 28 days
Method: as §3, §4

COLO 205 = test: In vitro cytotoxicity, COLO 205
Text: as §2

[5] = Cardillo et al., 2011; cited from earlier work
MDA-MB-468 = test: Cytotoxicity (MTS), Example 7, MDA-MB-468; type: cell-based, human; conditions: MDA-MB-468, 96 h
Method: as §1, with “ADC,” for “ADCs,”, “plates at 2000 cells per well.” for “plates.”, “IC50-values).” for “IC50-values.”

[6] = tested on: NCI-N87 human gastric tumor xenografts; test: Dose schedules and chronic dosing, NCI-N87 xenograft; type: in vivo, mouse
Text: In Vivo Therapeutic Studies—NCr female athymic nude (nu/nu) mice, 4-8 weeks old, were purchased from Taconic Farms (Germantown, NY). NCI-N87 gastric tumor xenografts were established by harvesting cells from tissue culture and making a final cell suspension 1:1 in matrigel (BD Bioscience; San Jose, CA), with each mouse receiving a total of 1×10^7 cells s.c. in the right flank. For BxPC-3. xenografts of 1 g were harvested, and a tumor suspension made in HBSS to a concentration of 40% tumor w/v. This suspension was mixed 1:1 with matrigel for a final tumor suspension of 20% w/v. […] For IHC, tumors were allowed to grow to approximately 0.5 cm^3 before the mice were euthanized and the tumors removed, formalin-fixed and paraffin-embedded. For therapy studies, mice were randomized into treatment groups and therapy begun when tumor volumes were approximately 0.25 cm^3.
Mice were euthanized and deemed to have succumbed to disease once tumors grew to greater than 1.0 cm^3 in size. […] Time to progression (TTP) was determined as time post-therapy initiation when the tumor grew more than 20% in size from its nadir.
A similar dose schedule experiment was performed in mice bearing NCI-N87 human gastric tumor xenografts (not shown). […] Likewise, in terms of overall survival, while all three dose schedules provided a significant survival benefit when compared to untreated control (P<0.0001), there were no differences between any of these three different schedules.
In all, four treatment cycles were administered to the animals.

metastatic SCLC = test: Phase I/II, metastatic SCLC cohort; type: in vivo, human
[7] = tested on: triple-negative breast cancer
[8] = tested on: metastatic non-small cell lung cancer (NSCLC); test: Phase I/II, metastatic NSCLC cohort; type: in vivo, human
Method: The best responses by RESIST 1.1 criteria were determined (not shown).

[9] = mouse, in vivo
Text: Pharmacokinetics—Naive female NCr nude (nu/nu) mice, 8-10 weeks old, were purchased from Taconic Farms (Germantown, NY). […] ELISA was utilized to determine serum concentrations of total hRS7 IgG by competing for the binding to an anti-hRS7 IgG idiotype antibody with a horseradish peroxidase conjugate of hRS7. […] Pharmacokinetic (PK) parameters were computed by noncompartmental analysis using Phoenix WinNonlin software (version 6.3; Pharsight Corp., Mountainview, CA).

urothelial cancer = test: Phase I/II, urothelial cancer cohort; type: in vivo, human

**Q.** For IMMU-132, which IC50 (PC-3) is on record?
**A.** 4.24 nM

**Q.** What about the therapeutic efficacy [1] of the same substance?
**A.** better therapeutic efficacy than control treatments

**Q.** And the IC50 (Capan-1)?
**A.** 3.5 nM

**Q.** What about the IC50 (SK-MES-1) of the same substance?
**A.** 23.1 nM

**Q.** What about the “tumor growth vs untreated and hA20-CL2A-SN-38” value (COLO 205 tumors; 0.4 mg/kg SN-38 twice weekly x 4 weeks) of the same substance?
**A.** significantly inhibited tumor growth

**Q.** What about the hematopoietic toxicity ([2]; 2 doses of 4, 8, 12 mg SN-38/kg) of the same substance?
**A.** No hematopoietic toxicity occurred

**Q.** What about the “tolerability, weight loss” value ([2]; 2 doses over 3 days, each of 4, 8, and 12 mg SN-38/kg) of the same substance?
**A.** minimal transient weight loss

**Q.** What about the “aspartate transaminase (AST)” value ([2]; mouse, in vivo) of the same substance?
**A.** > 298 U/L

**Q.** What about the liver histology ([2]; mouse, in vivo) of the same substance?
**A.** did not show histologic evidence of tissue damage

**Q.** What about the “mice with slightly elevated glucose” value ([2]; mouse, in vivo) of the same substance?
**A.** 5 of 7

**Q.** And the “MTD, cumulative dose over 1 week” value ([2]; normal mice, no acute toxicity)?
**A.** > 24 mg/kg SN-38

**Q.** What about the serum chemistries ([3]; 2x0.96 mg SN-38/kg) of the same substance?
**A.** No abnormal values

**Q.** What about the weight loss ([3]; 2x0.96 mg SN-38/kg) of the same substance?
**A.** ≤ 7.3%

**Q.** And the “histopathology, microscopic changes” value ([3]; 2x0.96 mg SN-38/kg, day 11)?
**A.** minimal to moderate

**Q.** What about the blood counts ([3]; 2x0.96 mg/kg, transient decreases, listed as sacituzumab govitecan) of the same substance?
**A.** the values did not fall below normal ranges

**Q.** And the deaths ([3]; 2x1.92 mg SN-38/kg, gastrointestinal complications and bone marrow suppression)?
**A.** 1

**Q.** What about the extrapolated human dose ([3]; cynomolgus monkey, in vivo) of the same substance?
**A.** ~0.3 mg/kg/dose

**Q.** What about the “tumor volume (TV)” value [4] of the same substance?
**A.** 0.36±0.25 cm^3

**Q.** And the “tolerability, body weight loss” value ([4]; in all murine studies)?
**A.** well tolerated in terms of body weight loss

**Q.** And the IC50 (COLO 205)?
**A.** 1.95 nM

**Q.** And the “very well tolerated human equivalent dose” value [5]?
**A.** ~40 mg/kg

**Q.** And the IC50 (MDA-MB-468)?
**A.** 3.9 nM

**Q.** What about the TTP ([6]; 0.5 mg once a week for two weeks, one week off, four cycles) of the same substance?
**A.** 15.7 ± 11.1 days

**Q.** And the treatment-related toxicities ([6]; all dosing scheme evaluations, body weight)?
**A.** no treatment-related toxicities were observed

**Q.** And the “increase in median survival vs control ADC” value ([6]; chronic dosing)?
**A.** 3 fold

**Q.** What about the median survival ([6]; chronic dosing, four cycles) of the same substance?
**A.** 63 days

**Q.** What about the “median OS” value (metastatic SCLC; 8 mg/kg) of the same substance?
**A.** 8.1 months

**Q.** What about the “median PFS” value (metastatic SCLC; 8 mg/kg) of the same substance?
**A.** 2.0 months

**Q.** And the “median PFS” value (metastatic SCLC; 10 mg/kg)?
**A.** 3.6 months

**Q.** And the “median time to progression” value (metastatic SCLC; in vivo)?
**A.** 4.9 months

**Q.** And the “decrease in sum of long diameter of target lesions” value ([7]; after 3 therapy cycles, 12 mg/kg then 9 mg/kg)?
**A.** 43%

**Q.** And the response ([7]; first response assessment)?
**A.** partial response by RECIST criteria

**Q.** And the “median PFS” value ([8]; 8 mg/kg)?
**A.** 3.4 months

**Q.** And the “median PFS” value ([8]; 10 mg/kg)?
**A.** 3.8 months

**Q.** And the “patients with PR or SD” value ([8]; 21/33)?
**A.** 64%

**Q.** What about the “PR, patients” value ([8]; 29 assessable patients, 8 or 10 mg/kg) of the same substance?
**A.** 8

**Q.** What about the “median time to progression” value ([8]; in vivo) of the same substance?
**A.** 9/4

**Q.** And the “MRT of carrier hRS7 antibody” value [9]?
**A.** ~300 h

**Q.** And the “alpha half-life of hRS7 IgG” value ([9]; iv, 200 ug)?
**A.** approximately 3 h

**Q.** And the “beta half-life of hRS7 IgG” value ([9]; iv, 200 ug)?
**A.** ~200 h

**Q.** And the “half-life of intact conjugate” value ([9]; iv, 200 ug)?
**A.** 11 h

**Q.** What about the “PR, patients” value (urothelial cancer; 11 assessable patients, 8 or 10 mg/kg) of the same substance?
**A.** 6

**Q.** And the “median time to progression” value (urothelial cancer; in vivo)?
**A.** 8.1 months

**Q.** What does the source list for hRS7 IgG?
**A.** tumor volume (TV) (COLO 205 tumors; 0.4 mg/kg, q4dx8, 28-day treatment period): 1.77±0.93 cm^3; tumor volume (TV) [4]: 1.30±1.08 cm^3; alpha half-life of hRS7 IgG ([9]; iv, 200 ug): approximately 3 h; beta half-life of hRS7 IgG ([9]; iv, 200 ug): ~200 h
